“And” between values parts separate entries of the source, which are not always exact repeats. Equal values may be shown once. “Also recorded” adds a separate entry of the source.
Tests used:
[1] = Formulation (solubility and stability) study of URB1483; format: physicochemical; conditions: for Solubility: 48-72 h at 37 °C
Protocol: Equivalence calculation between URB1483 concentration and injectable dose (mg/kg) […]
Considering an average mice weight of 25 g and an IP injectable volume of 100 μL, the following […]
correspondence can be considered:
[URB1483](mg/mL) = Dose (mg/kg) ∙ 0.025 (kg)
[URB1483](mM) = Dose (mg/kg) ∙0.025 (kg)
General procedure for the formulation study
To the indicated volume of the URB1483 stock solution in DMSO (25.0 mg/mL , 50.24 mM) were […]
added the appropriate volume or weight of excipient and the resulting mixture was heated at 37 °C […]
and sonicated for 10-20 min. Finally, distilled water was added to reach the final volume of 1 mL […]
(Table S1). The resulting formulation was ma intained at 37 °C under stirring for 48-72 h. At regular […]
time points, aliquots of the described formulations were sampled, centrifuged (8000 rpm, 10 min), […]
and two volumes of acetonitrile were added. After further centrifugation (8000 rpm, 10 min), the […]
resulted clear samples were analyzed by HPLC -ESI-MS for a percentage of the remaining compound.
URB1483 was considered soluble and stable in the formulation with more than 90% of the compoun d […]
Table S1 – Preliminary Formulation Study on URB1483[a]
Entry Final Dose Stock Solution URB1483 Volume Excipient Solubility[b]
2[c] 1 mg/kg 5 μL DMSO (95 μL) 🗶
3[c] 1 mg/kg 5 μL DMSO (195 μL) ✓
[a] DMSO = dimethylsulfoxide; PG = propylene glycol; PEG = polyethylene glycol; HPBC = 2-hydropropyl- […]
β-cyclodextrin. [b] URB1483 was considered soluble and stable with more than 90% of the compound […]
remaining unaltered after 48-72 h at 37 °C, by HPLC-ESI-MS analysis. [c] Instead of water, a physiological […]
solution (saline) was utilized.

[2] = test system: L. infantum intracellular amastigotes; set-up: method as in PMID 34984300; conditions: compared with pentamidine; cited from earlier work
[3] = test system: L. infantum MHOM/TN/80/IPT1 promastigotes; set-up: method as in PMID 34984300; conditions: read-out: IC50 against L. infantum promastigotes; cited from earlier work
THP-1 cells = test system: THP-1 cells; set-up: method as in PMID 34984300; conditions: cited from earlier work
[4] = test system: THP-1, DH82, HepG2, HaCaT and HPF cells; set-up: method as in PMID 34984300; conditions: cited from earlier work
[5] = test system: L. infantum (MHOM/MA/67/ITMAP-263) axenic amastigotes; experiment: In vivo anti-amastigote activity in BALB/c mice infection model (limiting dilution parasite burden); conditions: spleen, liver, bone marrow; URB1483 5 mg/kg/day IP in 60% PEG 400, 10 days; 5 mg/kg/day
Protocol: The compound URB1483 was selected for the in vivo evaluation on a BALB/c mice infection model. Six- to seven-week-old BALB/c mice were purchased from Charles River Laboratories (Barcelona, Spain) or the I3S (Porto, Portugal) animal facility. Luciferase-expressing L. infantum (MHOM/MA/67/ITMAP-263) axenic amastigotes were cultured in complete cell-free medium MAA/20 [20] at 37°C with 5% CO2. Five-day-old cultures of amastigotes were washed twice with PBS and resuspended at a concentration of 1×10^9 parasites/Ml. A total of 17 mice were infected with 100 μL of parasite suspension containing 1×10^8 parasites. The injection was performed intra-venously (IV) in the tails of mice, and treatments started 21 days post-infection for 10 consecutive days. Formulation studies are reported in the Supporting Information (S1 Table in S1 File). […]
Mice well-being-assessment was checked every two days, in terms of weight control and the presence of stress signs. […] Spleen and liver were weighted, and bone marrow cells were counted with automatic cell counter EVE^TM (NanoEnTek, Seul, Korea). […] For bone marrow, the number of parasites was calculated per 10^5 cells using the formula: [(geometric mean of reciprocal titer from each triplicate/number of cells) × reciprocal fraction of the cells inoculated into the first well]. […]

## CCOC(=O)c1c(C(=O)OC)cn(CC(c2cn(C)c3ccccc23)c2cn(C)c3ccccc23)c1C [URB1483]
[1]
  water solubility: Poorly soluble in water; also recorded: very poor water solubility; also recorded: poor water solubility
[1]; 60% PEG 400 in water, 1.25 mg/mL, mouse weight 25 g, injection volume 100 μL
  maximum injectable concentration: 5 mg/kg
[1]; entry 3: final dose 1 mg/kg, DMSO (195 μL), saline
  Solubility: ✓ (URB1483 was considered soluble and stable with more than 90% of the compound remaining unaltered after 48-72 h at 37 °C, by HPLC-ESI-MS analysis)
[1]; entry 6: final dose 1 mg/kg, PG (600 mg), water
  Solubility: ✓ (URB1483 was considered soluble and stable with more than 90% of the compound remaining unaltered after 48-72 h at 37 °C, by HPLC-ESI-MS analysis)
[1]; entry 9: final dose 1 mg/kg, PEG 400 (400 mg), water
  Solubility: ✓ (URB1483 was considered soluble and stable with more than 90% of the compound remaining unaltered after 48-72 h at 37 °C, by HPLC-ESI-MS analysis)
[1]; entry 11: final dose 1 mg/kg, PEG 400 (500 mg), water
  Solubility: ✓ (URB1483 was considered soluble and stable with more than 90% of the compound remaining unaltered after 48-72 h at 37 °C, by HPLC-ESI-MS analysis)
[1]; entry 12: final dose 2 mg/kg, PEG 400 (500 mg), water
  Solubility: ✓ (URB1483 was considered soluble and stable with more than 90% of the compound remaining unaltered after 48-72 h at 37 °C, by HPLC-ESI-MS analysis)
[1]; entry 14: final dose 1 mg/kg, PEG 400 (600 mg), water
  Solubility: ✓ (URB1483 was considered soluble and stable with more than 90% of the compound remaining unaltered after 48-72 h at 37 °C, by HPLC-ESI-MS analysis)
[1]; entry 15: final dose 2 mg/kg, PEG 400 (600 mg), water
  Solubility: ✓ (URB1483 was considered soluble and stable with more than 90% of the compound remaining unaltered after 48-72 h at 37 °C, by HPLC-ESI-MS analysis)
[1]; entry 16: final dose 5 mg/kg, PEG 400 (600 mg), water
  Solubility: ✓ (URB1483 was considered soluble and stable with more than 90% of the compound remaining unaltered after 48-72 h at 37 °C, by HPLC-ESI-MS analysis)
[1]; entry 19: final dose 1 mg/kg, HPBC (400 mg), water
  Solubility: ✓ (URB1483 was considered soluble and stable with more than 90% of the compound remaining unaltered after 48-72 h at 37 °C, by HPLC-ESI-MS analysis)
[2]
  efficacy on in vitro infection model: comparable to that of the commercial drug pentamidine
[3]
  IC50: 3.7 µM and 4 µM
THP-1 cells
  CC50: > 200 µM
  selectivity index (SI): greater than 55
[4]
  toxicity on mammalian cell lines: did not affect the viability; also recorded: No toxicity
[5]
  effect on parasite burden (in vivo efficacy): did not significantly reduce parasite burden; also recorded: No in vivo efficacy; also recorded: could not reduce parasite burden; also recorded: ineffective

From paper PMC11175440, “Exploring hydrophilic 2,2-di(indol-3-yl)ethanamine derivatives against Leishmania infantum” (PLOS ONE, 2024)
